Marks after values point to notes of the source that are not given here.

We go through 11 molecules from US20110190249A1, “THERAPEUTIC METHODS AND USES OF SAPOGENINS AND THEIR DERIVATIVES” (PHYTOPHARM PLC, priority 2002, published 2011).

Assay [1] has as its system rat primary cortical neurones. The experiment in a line: Reversal of glutamate-induced neurodegeneration (LDH), treatment after glutamate exposure. The format is cell-based. As to conditions: LDH after 24 h, control = 100. On the procedure:
(§1) Neuronal cell survival was evaluated by measuring lactate dehydrogenase (LDH) activity released in the media 24 h after test compound treatment or glutamate+test compound exposure, using the CytoTox 96 non-radioactive kit and quantitated by measuring wavelength absorbance at 450 nm.
As above mentioned, exposure of rat primary cortical cultures to glutamate (100 μM; 10 min) caused an increase in lactate dehydrogenase (LDH) activity measured after 24 h, indicating a significant neurodegeneration.

Assay [2] deals with rat mesencephalic dopaminergic neurones. Nature of the assay: Treatment of dopaminergic neurones after MPP+ exposure (survival, neurites). The settings on record: treatment 0.03 nM; MPP+ 2 μM; MPP+ alone 76 ± 4. The format is cell-based. From the text:
Smilagenin and sarsasapogenin also reverse the neurodegeneration caused by exposure to the neurotoxin 1-methyl-4-phenylpyridinium (MPP^+) in rat mesencephalic dopaminergic neurones; a model of Parkinson's disease in vitro.
Glial cell line-derived neurotrophic factor (GDNF) and brain-derived neurotrophic factor (BDNF), molecules that are involved in neuronal growth, and 17β-oestradiol were used as positive controls. Treatment with smilagenin and sarsasapogenin produced a significant increase in the neuronal survival compared to neurones exposed to MPP^+ alone (Table 8).
Exposure to MPP^+ caused not only a significant decrease in dopaminergic number but also in the percentage of neurites.

The test system of assay [3] is rat primary cortical neurones. Nature of the assay: Neurite outgrowth in rat primary cortical neurones. The settings on record: for Number of neurones displaying neurites, Mean ± s.e.m (%): control 47 ± 2; for Neurite length measured using optical micrometry, Mean ± s.e.m (%): control 100 ± 4. The format is cell-based. From the text: Neurodegenerative disorders are characterised by a progressive loss of neurones and degradation of neuronal processes (neurites). Agents that induce neurite outgrowth may promote the formation of new connections between neurones and ameliorate the symptoms of neurodegenerative conditions (Katzman et al, Faseb J., 5, 278-286, 1991).

The test system of assay [4] is rat primary spinal motor neurones. The experiment in a line: Glutamate-induced neurodegeneration in spinal motor neurones (LDH). The format is cell-based. As to conditions: control 100 ± 1. The protocol: The objective of this study was to examine the effects of sarsasapogenin and smilagenin on the survival of rat primary spinal motor neurones exposed to glutamate, which is known to induce neurodegeneration in this model of motor neurodegeneration.
Rat motor neurones were prepared according to the method described by (Martinou et al, Neuron, 8, 737-744, 1992). On day 10, medium was removed and the cultures were exposed to glutamate (4 microM) for 10 min at 37° C. in defined medium. After the glutamate exposure, cultures were washed with Dulbecco modified Eagle medium at 37° C. then placed in fresh culture medium containing test compounds. After 48 h, the extent of spinal motor neurone degeneration was determined by measuring the amount of lactate dehydrogenase (LDH) released into the culture medium as above.

The subject of assay [5] is muscarinic acetylcholine receptor. The experiment in a line: Brain M receptor density (3H-QNB) in amyloid β + ibotenic acid rat model. The format is in vivo. As to conditions: 18 mg/kg/day gastric tube, two months; model 713 ± 48, control 859 ± 101. On the procedure:
(§2) An in vivo model of Alzheimer's disease was used to model neurodegeneration. In this model the neurotoxic agents (amyloid β and ibotenic acid) are injected into the brain of the rat. This leads to neuronal loss, receptor loss and cognitive impairment. […] In addition the co-injection of amyloid β with a small amount of ibotenic acid into the rat hippocampus synergistically produces neuronal loss with infiltration of glial cells not only adjacent but also far from the injected site (Morimoto et al., 1998: Neuroscience, 84, 479-487).
(§3) Our studies used the method of Morimoto (Morimoto et al., 1998: Neuroscience, 84, 479-487) with some modifications (unilateral instead of bilateral injection). Three months old, Sprague Dawley rats, were randomly divided into different groups. Injection of amyloid β1-40 and ibotenic acid (both from Sigma) was accomplished by means of a stereotaxic instrument (Stoelting Co.) and the coordinates were AP=−0.5 mm […], L=−2.8 mm […], H=−7.0 mm (ventral to dura). The dose for each rat was amyloid β1-40 (4 μg) and ibotenic acid (1 μg) in 1 μl of saline. The injection was completed in 20 min, and the needle was withdrawn 10 min later. Then the skin was sutured.
(§4) The 8 groups were: • Operated control injected with normal saline (control) • Model (control injected with amyloid β+ibotenic acid) • Model+Episarsasapogenin cathylate (18 mg/kg/day)* • Model+Sarsasapogenin cathylate (18 mg/kg/day)* • Model+Episarsasapogenin ethylsuccinate (18 mg/kg/day) (comparison) • Model+Episarsasapogenin (18 mg/kg/day)* • Model+Epismilagenin (18 mg/kg/day)* • Model+Diosgenin (i.e. negative control, 18 mg/kg/day)
(§5) Episarsasapogenin cathylate, sarsasapogenin cathylate, episarsasapogenin ethylsuccinate (comparison compound), episarsasapogenin, epismilagenin and diosgenin (all at a dosage of 18 mg/kg/day) were administered to animals as stable suspensions in CMC—Na (0.5%) once daily through a gastric tube. The control and the model group were given the same volume of CMC—Na (0.5%) once daily. The drugs and vehicles were given for a period of two months, starting 20 days before operation.
Muscarinic acetylcholine receptor density was assessed. The brain samples were homogenised, centrifuged, and the pellet of centrifugation at 27000×g was re-homogenised and used for measurement. The concentration of ^3H-QNB was chosen at the saturation range. After incubation and separation, the bound portion was measured by liquid scintillation counter.

For assay [6], the system named is Sprague Dawley rats injected with amyloid β1-40 and ibotenic acid. The experiment in a line: Step-through test in amyloid β + ibotenic acid rat model. It is filed as in vivo. The settings on record: 18 mg/kg/day gastric tube, two months; errors in 5 min; model 4.00 ± 2.40, control 0.60 ± 0.70. The protocol: as §2, §3, §4, §5
Step-Through Test: learning and memory. The effect of test compounds on learning and memory was assessed using the step-through test. A 60×15×15 cm box, divided into 2 equally sized rooms, one dark room with copper rod base, which was electrically charged (40 V ac) when in use, while the other was a light room but not electrically charged. Between the two rooms there is an opening (hole) for the rat to go through. The experiment is carried out for each rat on two consecutive days. The first day is for training; when the rat is adapted in the box for the first 3 min, then put in the light room, with its back toward the hole, and the copper rods of the dark room are charged for 5 min. The second day is for testing, when the number of crosses in 5 min are recorded. Improvements in memory are signalled by a reduction in the number of crosses.

Assay [7] concerns rat primary cortical neurones. The experiment in a line: Prevention of glutamate-induced neurodegeneration (LDH release), pre-treatment. The format is cell-based. As to conditions: 30 nM, given 24 h before glutamate; LDH 24 h after glutamate; control = 100. The protocol:
The objective of this study was to examine the effects of sarsasapogenin, episarsasapogenin cathylate, episarsasapogenin, epismilagenin and smilagenin on the survival of rat primary cortical neurones exposed to glutamate, which is known to induce neuro degeneration.
Rat cortical neurones were cultured for 10 days; at day 10 the medium was changed to a serum-free defined medium. On day 12, 24 hours before glutamate exposure, cultures were washed and medium was replaced with fresh medium containing positive control (β-oestradiol), test compounds (sarsasapogenin, episarsasapogenin cathylate, episarsasapogenin, epismilagenin and smilagenin) or vehicle control (DMSO, 0.25%) or diosgenin as negative control.
On day 13, cultures were exposed to glutamate. After the incubation period, the cultures were washed with and placed in fresh medium, supplemented with relevant compounds or vehicle to evaluate their protective effects, 24 h after glutamate exposure.
as §1
Background: Release of lactate dehydrogenase indicates damage to the cell membrane.

Where [8] appears, read: 3 nM after glutamate 100 μM 10 min.
Setting [9] is: 30 nM after glutamate 100 μM 10 min.

In the case of `CC(C)CCC1OC2C[C@H]3[C@@H]4CC[C@@H]5C[C@@H](O)CC[C@]5(C)[C@H]4CC[C@]3(C)[C@H]2[C@@H]1C` (stereo partly drawn) [16,22-epoxycoprostan-3β-ol], the “Cortical neurones previously exposed to glutamate, Mean ± s.e.m (%)” value (shortened to “Cortical neurones previously exposed … (%)”) in assay [1] (setting [8]) was determined as 114 ± 7%; in assay [1] (setting [9]) it was 134 ± 5%.

In the case of `C[C@]12CC[C@@H]3c4ccc(O)cc4CC[C@H]3[C@@H]1CC[C@@H]2O` [17β-oestradiol, reference compound], the “Dopaminergic neurones after MPP+ exposure (survival), Mean ± s.e.m (%)” value in assay [2] is reported as 106 + 5%. The “Cortical neurones previously exposed … (%)” value in assay [1] (setting [8]) is 69 ± 2%; in assay [1] (setting [9]), 75 ± 5%. Further, the “Number of neurones displaying neurites, Mean ± s.e.m (%)” value in assay [3] (0.3 pM) came to 48 ± 2%; in assay [3] (3 pM) it was 60 ± 2%; in assay [3] (30 pM), 59 ± 2%. Besides, the “Neurite length measured using optical micrometry, Mean ± s.e.m (%)” value in assay [3] (0.3 pM) is on record as 154 ± 5%; in assay [3] (3 pM), 163 ± 4%. Further, in assay [4] (300 nM for 48 h after glutamate 4 microM 10 min), the “Glutamate-induced neurodegeneration in spinal motor neurones, Mean ± s.e.m (%)” value was 116 + 6%.

Turning to `CC(C)CCC[C@@H](C)[C@H]1CC[C@H]2[C@@H]3CC[C@@H]4C[C@@H](O)CC[C@]4(C)[C@H]3CC[C@]12C` [Coprosterol, coprosterol], the “Cortical neurones previously exposed … (%)” value is recorded as 126 ± 5% in assay [1] (setting [8]) and 116 ± 4% in assay [1] (setting [9]).

As for `CCOC(=O)CCC(=O)OC1CCC2(C)C(CCC3C2CCC2(C)C3CC3OC4(CCC(C)CO4)C(C)C32)C1` (centres unmarked) [Episarsasapogenin ethylsuccinate, episarsasapogenin ethylsuccinate, reference compound], the M receptor density in assay [5] worked out at 774 ± 79 fmol/mg/protein. In assay [6], the “Learning and memory Step through test Error No” value was found to be 3.73 ± 1.35.

In the case of `CC1CCC2(OC1)OC1CC3C4CCC5CC(OC(=O)CN)CCC5(C)C4CCC3(C)C1C2C.Cl` (centres unmarked) [Smilagenin glycinate hydrochloride, smilagenin glycinate hydrochloride], the “Cortical neurones previously exposed … (%)” value in assay [1] (setting [8]) stood at 117 ± 4%; in assay [1] (setting [9]), 141 ± 6%.

`C[C@@H]1CC[C@@]2(OC1)O[C@H]1C[C@H]3[C@@H]4CC[C@@H]5CC(=O)CC[C@]5(C)[C@H]4CC[C@]3(C)[C@H]1[C@@H]2C` [Smilagenone, smilagenone]: the figures for the “Cortical neurones previously exposed … (%)” value in assay [1] (setting [8]) and in assay [1] (setting [9]) were 119 ± 7% and 119 ± 4%, respectively.

Turning to `C[C@@H]1CC[C@@]2(OC1)O[C@H]1C[C@H]3[C@@H]4CC=C5C[C@@H](O)CC[C@]5(C)[C@H]4CC[C@]3(C)[C@H]1[C@@H]2C` [diosgenin, reference compound], in assay [7], the “Prevention of glutamate-induced neurodegeneration, Mean ± s.e.m (%)” value (“Prevention … (%)” below) came out at 72 ± 4%. In addition, the M receptor density in assay [5] is reported as 770 ± 68 fmol/mg/protein. Also, the “Cortical neurones previously exposed … (%)” value in assay [1] (setting [9]) is reported as 49 ± 6%. Moreover, the “Learning and memory Step through test Error No” value in assay [6] was determined as 3.75 ± 1.49.

On to `C[C@H]1CC[C@@]2(OC1)O[C@H]1C[C@H]3[C@@H]4CC[C@@H]5C[C@H](O)CC[C@]5(C)[C@H]4CC[C@]3(C)[C@H]1[C@@H]2C` [episarsasapogenin], for which the “Prevention … (%)” value in assay [7] is on record as 88 ± 3%. The M receptor density in assay [5] is listed as 869 ± 104* fmol/mg/protein. In addition, the “Learning and memory Step through test Error No” value in assay [6] is given as 1.50 ± 1.18*.

`C[C@@H]1CC[C@@]2(OC1)O[C@H]1C[C@H]3[C@@H]4CC[C@@H]5C[C@H](O)CC[C@]5(C)[C@H]4CC[C@]3(C)[C@H]1[C@@H]2C` [epismilagenin]: the “Prevention … (%)” value in assay [7] stood at 79 ± 2%. Also, the M receptor density in assay [5] is 877 ± 90* fmol/mg/protein. Moreover, the “Learning and memory Step through test Error No” value in assay [6] was 1.73 ± 0.91*.

For the molecule `CCOC(=O)OC1CCC2(C)C(CCC3C2CCC2(C)C3CC3OC4(CCC(C)CO4)C(C)C32)C1` (centres unmarked) [sarsasapogenin cathylate], the M receptor density in assay [5] is 916 ± 158* fmol/mg/protein. For the same molecule, the “Learning and memory Step through test Error No” value in assay [6] was 1.36 ± 1.03*.

B1: BDNF: brain-derived neurotrophic factor, positive control (protein, UniProt P23560 19-247, looked up)
Neurotrophic factor BDNF …: APMKEANIRGQGGLAYPGVRTHGTLESVNGPKAGSRGLTSLADTFEHVIEELLDEDQKVRPNEENNKDADLYTSRVMLSSQVPLEPPLLFLLEEYKNYLDAANMSMRVRRHSDPARRGELSVCDSISEWVTAADKKTAVDMSGGTVTVLEKVPVSKGQLKQYFYETKCNPMGYTKEGCRGIDKRHWNSQCRTTQSYVRALTMDSKKRIGWRFIRIDTSCVCTLTIKRGR
Consider B1, for which the “Glutamate-induced neurodegeneration in spinal motor neurones, Mean ± s.e.m (%)” value in assay [4] (3 nM for 48 h after glutamate 4 microM 10 min) worked out at 148 ± 8%.
